Data as given in patent US20260182611A1, “SWEETENER COMPOSITION AND TASTE-IMPROVING AGENT” (AJINOMOTO CO., INC., priority 2023, published 2026).

Experiment: Sensory evaluation of taste quality (sweetness intensity, bitter taste, lingering sweetness) of sweet solutions by trained panel
Parameters: species or system human
Details: closer to PC sucrose
Description: Rebaudioside A (MORITA KAGAKU KOGYO CO., LTD.) was dissolved in filtered water (ion exchange water) to prepare a 720 ppm aqueous solution of rebaudioside A, which was used as the negative control (NC) solution.
Sucrose (Mitsui DM Sugar Co., Ltd.) was dissolved in filtered water to prepare a 7.5% aqueous solution of sucrose, which was used as the positive control (PC) solution.
Sweet solutions prepared by adding each compound (naringenin (Penta Manufacturing Company), hesperetin (Xi'an International Healthcare Factory Co., Ltd.), pinocembrin (Shaanxi Ebony Biotech Co., Ltd.), γ-Glu-Val-Gly (AJINOMOTO CO., INC.), γ-Glu-Abu (AJINOMOTO CO., INC.), yeast extract containing γ-Glu-Abu, γ-nonalactone (Sigma-Aldrich Co. LLC.)) to NC solution at the concentrations indicated in Tables 1 to 5 were evaluated by sensory evaluation.
The yeast extract containing γ-Glu-Abu used in this example was a powdered yeast extract containing 7 to 13% (w/w) γ-Glu-Abu based on dry weight, which was produced in accordance with the method described in WO 2012/046731 or “Savorboost (product name) yeast extract containing γ-Glu-Abu (Asahi Group Foods, Ltd.)”. In Tables 1-4, the concentration of the yeast extract containing γ-Glu-Abu added is shown as a value converted to the amount of γ-Glu-Abu in the yeast extract.
The taste quality of the PC solution (7.5% sucrose) was scored as 10.0 points, the taste quality of the NC solution (720 ppm rebaudioside A) was scored as 1.0 points, and the sensory evaluation score for each sample was evaluated in 0.1 point increments. The taste quality was evaluated including sweetness intensity, intensity of bitter taste, and intensity of lingering sweetness. Samples with an evaluation score of 3 or higher were deemed to have a taste quality-improving effect. The evaluation was performed by a panel of four people who had received sensory evaluation training, and was conducted by blind evaluation. The average evaluation score of all panel members was calculated and addition effect was examined.
In addition, to compare with the addition effect of a single component, a theoretical additive point was calculated and compared with the evaluation score when the components were added in combination to examine the presence or absence of a synergistic effect.

[1] = 5 ppm of the flavonoid in combination with 0.3 ppm γ-Glu-Val-Gly
[2] = flavonoid in combination with γ-Glu-Abu or a yeast extract containing γ-Glu-Abu

Compound | taste quality of rebaudioside A [1] | taste quality of rebaudioside A [2] | taste quality of rebaudioside A (combination of pinocembrin and rebaudioside A alone)
COc1ccc(C2CC(=O)c3c(O)cc(O)cc3O2)cc1O (stereo not shown) [hesperetin] | synergistically improved the taste quality of rebaudioside A | synergistically improved the taste quality of rebaudioside A | 
O=C1C[C@@H](c2ccc(O)cc2)Oc2cc(O)cc(O)c21 [naringenin] | synergistically improved the taste quality of rebaudioside A | synergistically improved the taste quality of rebaudioside A | 
O=C1CC(c2ccccc2)Oc2cc(O)cc(O)c21 (stereo not shown) [pinocembrin] | synergistically improved the taste quality of rebaudioside A | synergistically improved the taste quality of rebaudioside A | improved the taste quality of rebaudioside A
